{"source": "patent US20260152751A1", "about": "“INTERFERING RNA FOR INHIBITING JAK1 GENE EXPRESSION AND USE THEREOF” (Jenkem Technology Co., Ltd. (BEIJING), priority 2024, published 2026)", "key": {"JAK1 gene": {"system": "JAK1 gene", "assay": "qPCR of JAK1 expression in HaCaT cells transfected with modified siJAK1", "format": "cell-based, human", "settings": "siRNA 50 nM, 48 h after transfection, JAK1 by qPCR, siNC = 100.00", "description": "One day prior to transfection, 293T cells were seeded into a 24-well cell culture plate at 1×10^5 cells/well, and the culture medium was 500 μL of DMEM containing 10% FBS and 1% penicillin-streptomycin. Three replicate wells were made for each group. The culture plate was placed in an incubator with 5% CO2 at 37° C. for 24 h to allow the cells to adhere to the wall. On the day of transfection, the culture medium was changed to 450 μL of DMEM culture medium without antibiotics (containing 10% FBS). The siRNAs were diluted with 25 μL of Opti-MEM culture medium, and the control group was siNC at the same concentration; a Lipofectamine™RNAiMAX transfection reagent (Lip) was diluted with another 25 μL of Opti-MEM culture medium, and the mixture was left to stand at room temperature for 5 min; and the two dilutions were uniformly mixed and left to stand at room temperature for 5 min. 50 μL of the mixed solution described above was added to each well to obtain a final transfection volume of 500 μL, and the working concentration of the siRNA was 50 nM. After the cells were further cultured in an incubator with 5% CO2 at 37° C. for 48 h, the total RNA of the cells was extracted.\n1) The RNA was reverse-transcribed into a cDNA template using the All-in-One First-Strand Synthesis MasterMix (LABLEAD, Cat. No.: F0202) kit. The reaction system was established according to Table 2, where all components were mixed uniformly and centrifuged to collect the liquid at the bottom of a tube, and the PCR program was run according to the settings of 37° C. for 2 min, 55° C. for 15 min, and 85° C. for 5 min, thereby giving the cDNA template.\n2) The gene expression level was detected using the Taq SYBR® Green qPCR Premix (LABLEAD, Cat. No.: R0202) kit, and the qPCR system was established according to Table 3. All components were mixed uniformly and centrifuged to collect the liquid at the bottom of a tube, and the PCR program was run according to the following settings: • Step1: 95° C. 30 s; • Step2: 95° C. 10 s; • Step3: 60° C. 30 s+Plate Read; • Step4: Go to Step2, 40 times; • Step5: Melt Curve 65 to 95° C., increment 0.5° C., for 5 s+Plate Read.\nGAPDH was used as an endogenous reference to detect the relative expression level of JAK1 gene, and the sequences of the primers used are as follows: […]\nAccording to the method described in Example 2, human keratinocyte HaCaT cells were transfected with the modified siJAK1 at an siRNA working concentration of 50 nM. The expression level of JAK1 was detected by qPCR 48 h after the transfection. The controls included siNC and unmodified siJAK1 at the same concentration."}, "[1]": {"system": "IFN-γ-induced STAT1 phosphorylation", "assay": "Western blot of IFN-γ-induced STAT1 phosphorylation in L929 cells", "format": "cell-based, mouse", "settings": "siRNA 50 nM, 48 h, IFN-γ 100 ng/mL 30 min, compared to siNC in Group 3, FIG. 17", "protocol": "Mouse fibroblast L929 cells were seeded into a 6-well cell culture plate at 1×10^5 cells/well, and the culture medium was 2 mL of DMEM containing 10% FBS and 1% penicillin-streptomycin.\nThe cells were then harvested, and the total cellular proteins were extracted to detect the levels of phosphorylated STAT1 by Western blot.\n1) The cells were lysed in an appropriate volume of pre-chilled RIPA lysis solution (supplemented with 1 mM PMSF, R1090, LABLEAD prior to use; containing protease and phosphatase inhibitors) for 3-5 min. The lysates were centrifuged at 14000 g at 4° C. for 5 min. The supernatant was carefully pipetted into a new 1.5 mL centrifuge tube. Protein concentrations were measured using the BCA method (PC0020, Solarbio). The samples were mixed with a loading buffer and incubated in a water bath kettle at 95° C. for 10 min.\n2) The protein samples were separated by electrophoresis on 4-12% 12-well gradient gels (P41212, LABLEAD) using compatible electrophoresis buffer. […]\n4) The PVDF membrane was trimmed based on the molecular weight of the protein and the marker, and blocked with 5% skim milk in TBST at room temperature for 1 h. […] After the membrane was washed again, chemiluminescent substrate (E1050, E1080, LABLEAD) was added, and signals were captured using the Bio-Red imaging system (ChemiDoc™ XRS+Imager) and analyzed using the accompanying software. […]"}}}
{"substance": "siJAK1-3283-m11: 2′-OMe and 2′-F modified siJAK1-3283; sense strand SEQ ID NO: 51, antisense strand SEQ ID NO: 55 (sense AGAACAUUGUGAAGUACAAUU; antisense UUGUACUUCACAAUGUUCUUU; 2'-OMe and 2'-F modifications; modified_base 20..21 OTHER; thymine; modified_base 1..2 OTHER; 2'-O-methyl; modified_base 3 OTHER; 2'-fluoro; modified_base 4 OTHER; modified_base 5 OTHER; modified_base 6 OTHER; modified_base 7 OTHER; modified_base 8 OTHER; modified_base 9..11 OTHER; modified_base 12 OTHER; modified_base 13 OTHER; modi; modified_base 1..3 OTHER; modified_base 7)", "values": [{"measurement": "Relative expression level, Mean value (Mean)", "setting": "JAK1 gene", "value": 18.37}, {"measurement": "Inhibition of IFN-γ-induced STAT1 phosphorylation level by modified siJAK1 (Western blot)", "setting": "[1]", "value": "superior inhibitory effects"}]}
